Experimental data taken from ChEMBL document CHEMBL1201862, “PubChem BioAssay data set” (2004).
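Grown in 96-well plates, cells were treated for 48 hours with each compound at five concentrations. Insufficient inhibition: endpoint recorded as highest concentration tested. At the GI50, growth is halved.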 Activity calls are given as the source filed them. Rule as the data show it: active = GI50 up to about 1.1 µM and inactive = higher.

How the values were obtained:
Experiment in all cases: NCI anticancer screen, dose series, 48 h
[1] = system: 786-0
[2] = system: A498
[3] = system: A549
[4] = system: ACHN
[5] = system: CAKI-1
[6] = system: CCRF-CEM
[7] = system: COLO 205
[8] = system: DLD-1
[9] = system: DMS-114
[10] = system: DMS-273
[11] = system: EKVX
[12] = system: HCC 2998
[13] = system: HCT-116
[14] = system: HCT-15
[15] = system: HL-60
[16] = system: HOP-18
[17] = system: HOP-62
[18] = system: HOP-92
[19] = system: HT-29
[20] = system: IGROV-1
[21] = system: K562
[22] = system: KM-20L2
[23] = system: KM12
[24] = system: LOX IMVI
[25] = system: LXFL 529
[26] = system: M14
[27] = system: MOLT-4
[28] = system: Malme-3M
[29] = system: NCI-H23
[30] = system: NCI-H460
[31] = system: OVCAR-3
[32] = system: OVCAR-4
[33] = system: OVCAR-5
[34] = system: OVCAR-8
[35] = system: RPMI-8226
[36] = system: RXF 393
[37] = system: RXF 631
[38] = system: SF-268
[39] = system: SF-295
[40] = system: SF-539
[41] = system: SK-MEL-28
[42] = system: SK-MEL-2
[43] = system: SK-MEL-5
[44] = system: SK-OV-3
[45] = system: SN12C
[46] = system: SNB-19
[47] = system: SNB-75
[48] = system: SNB-78
[49] = system: SR
[50] = system: SW-620
[51] = system: TK-10
[52] = system: U-251
[53] = system: UACC-257
[54] = system: UACC-62
[55] = system: UO-31
[56] = system: XF498
[57] = system: M19-MEL
[58] = system: NCI-H226

Measured: GI50

CC(CNCCCNCCNCCCNCO)[N+](=O)[O-] (centres undefined)
10.8 µM: [14]
inactive: [1] 15.7 µM | [2] 17.5 µM | [3] 21.9 µM | [4] 16.7 µM | [5] 6.11 µM | [6] 2.75 µM | [7] 6.52 µM | [8] 3.63 µM | [9] 16.6 µM | [10] 16.5 µM | [11] 16 µM | [12] 16.6 µM | [13] 10.8 µM | [15] 3.89 µM | [16] 14.7 µM | [17] > 100 µM | [18] 2.65 µM | [19] 21.3 µM | [20] 20.4 µM | [21] 3.44 µM | [22] 16.9 µM | [23] 16.1 µM | [24] 14.4 µM | [25] 3.99 µM | [26] 11.4 µM | [27] 4.12 µM | [28] 2.07 µM | [29] 15 µM | [30] 17.2 µM | [31] 16.5 µM | [32] 14.5 µM | [33] 13.9 µM | [34] 14.4 µM | [35] 5.06 µM | [36] 15.8 µM | [37] 16 µM | [38] 15.7 µM | [39] > 100 µM | [40] 15.4 µM | [41] 13.6 µM | [42] 15.5 µM | [43] 16.3 µM | [44] > 100 µM | [45] 15.1 µM | [46] > 100 µM | [47] 20.8 µM | [48] 20.6 µM | [49] 3.39 µM | [50] 3.6 µM | [51] 2.49 µM | [52] 15.9 µM | [53] 13.3 µM | [54] 16 µM | [55] 16.9 µM | [56] 16.1 µM

NC1=NN(c2ccccc2)C(=O)C1C(=O)C(=O)NC1C2CC3CC(C2)CC1C3 (centres undefined)
> 100 µM: [14]
inactive: [1] > 100 µM | [3] > 100 µM | [4] > 100 µM | [6] > 100 µM | [7] > 100 µM | [8] > 100 µM | [9] > 100 µM | [10] > 100 µM | [11] > 100 µM | [12] > 100 µM | [13] > 100 µM | [15] > 100 µM | [16] > 100 µM | [17] > 100 µM | [18] > 100 µM | [19] > 100 µM | [20] > 100 µM | [21] > 100 µM | [22] > 100 µM | [23] > 100 µM | [24] > 100 µM | [25] 66.1 µM | [26] > 100 µM | [57] > 100 µM | [27] > 100 µM | [28] > 100 µM | [58] > 100 µM | [29] > 100 µM | [30] > 100 µM | [31] > 100 µM | [32] > 100 µM | [33] > 100 µM | [34] > 100 µM | [36] > 100 µM | [37] > 100 µM | [38] > 100 µM | [39] > 100 µM | [40] > 100 µM | [41] > 100 µM | [42] > 100 µM | [43] > 100 µM | [44] 24.9 µM | [45] > 100 µM | [46] > 100 µM | [48] > 100 µM | [49] > 100 µM | [50] > 100 µM | [51] > 100 µM | [52] > 100 µM | [53] > 100 µM | [54] > 100 µM | [55] > 100 µM
